Assay results: US20220372014A1, “NEUROPROTECTIVE COMPOUNDS AND METHODS OF USE THEREOF” (The Johns Hopkins University, priority 2019, published 2022)
“Also recorded” adds a separate entry of the source.

Key:
SH-SY5Y cells = experiment: Staurosporine (STS)-induced apoptotic cell death, Alamar blue; format: cell-based; conditions: 0.5 μM STS
Procedure: Graphs represent mean±s.e.m. ***P<0.0005, two-way ANOVA followed by Tukey's post hoc test (n=3). A PARP inhibitor, ABT-888 is used for the positive control. FIGS. 12B and 12C show in vitro oxidoreductase and tautomerase activity of MIF/PAAN with compound 41, 56, 76, or 77. FIGS. 12D and 12E show Alamar blue cell viability assay from SH-SY5Y cells pre-incubated with compound 41, 56, 76, or 77 in response to 0.5 μM staurosporine (STS) or from HT 22 cells incubated with 1 ng/ml of TNF-α with 50 μM z-VAD. A pan caspase inhibitor, z-VAD or necrostatin (Nec-1) is used for the positive control and PARP inhibitor, ABT-888 is used for negative control. Bars represent mean±s.e.m. ***P<0.0005, two-way ANOVA followed by Tukey's post hoc test (n=3). […] Bars represent mean±s.e.m. **P<0.005, ***P<0.0005, two-way ANOVA followed by Tukey's post hoc test (n=3).
FIGS. 14A-14G show the characterization of compound 121. […] Bars represent means±s.e.m. ***P<0.0005, two-way ANOVA followed by Tukey's post hoc test (n=4). […] Bars represent mean±s.e.m. ***P<0.0005, two-way ANOVA followed by Tukey's post hoc test (n=4). […] Bars represent means±s.e.m. **P<0.005, ***P<0.0005, one-way ANOVA followed by Tukey's post hoc test (n=3). […] Bar represent mean±s.e.m. ***P<0.0005, one-way ANOVA followed by Tukey's post hoc test (n=3). […] Quantification of inhibition of PARP-1 activity by compound 56, compound 121 and ABT-888 is shown. Graphs represent mean±s.e.m. ***P<0.0005, two-way ANOVA followed by Tukey's post hoc test (n=3). FIGS. 14F and 14G show Alamar blue cell viability assay from SH-SY5Y cells pre-incubated with either compound 56 or 121 in response to (14F) 0.5 μM staurosporine (STS) or (14G) from HT 22 cells incubated with 1 ng/ml of TNF-α with 50 μM z-VAD. Bars represent mean±s.e.m. ***P<0.0005, two-way ANOVA followed by Tukey's post hoc test (n=5).
Cell death and viability assessment. Primary cultured cortical neurons were treated with 5 μg/ml of α-syn PFF for 14 days and cell death was determined by staining of all nuclei with 7 μM Hoechst 33342 and dead cell nuclei with 2 μM propidium iodide (PI) (Invitrogen). The numbers of total and dead cells were counted with the Axiovision 4.6 software (Carl Zeiss). Cell viability was determined by fluorescence at an excitation wavelength 570 nm and an emission wavelength 585 nm using Alamar Blue (Invitrogen).

EcoRI = EcoRI (Escherichia coli, UniProt P00642); experiment: In vitro nuclease assay of EcoRI (pcDNA3 substrate); format: biochemical
Procedure: Nuclease assay. Purified PAAN/MIF protein (4 μM) was incubated with compounds (10 μM) in the nuclease buffer [10 mM Tris-C1 (pH 7.0) and 10 mM MgCl2] for 20 m on ice. Then samples were added with 1 μM of PAAN/MIF substrate (PS30 or RF) and incubated for 1 h at 37° C. The reaction was terminated with loading buffer containing 10 mM EDTA and separated on 15% TBE-urea polyacrylamide (PAGE) gel or 20% TBE PAGE gel. For other nucleases (EcoRI and EcoRV) assays, pcDNA3 (500 ng/reaction) was used as a substrate and 0.01 unit of Exonulcase III were incubated with small dsDNA (Sequence ID NO 4:5′-[…]-3′ and Sequence ID NO 5:5′-[…]-3′).

mouse cortical neurons = experiment: Pulsed-field gel electrophoresis of α-syn PFF-induced DNA damage in mouse cortical neurons; format: cell-based
Procedure: Preparation and quantification of genomic DNA. The striatum was rapidly removed from the brain and lysed by repetitive pipetting with a micropipette in lysis buffer [100 mM NaCl, 10 mM Tris-HCl (pH 8.0), 25 mM EDTA (pH 8.0), 0.5% SDS] with 0.2 mg/ml proteinase K (Roche Diagnotics). Samples were incubated 55° C. for overnight and further incubated 85° C. for 45 m to inactivate proteinase K. The genomic DNA were immediately separated on a 1.2% pulse field certified agarose in 0.5×TBE buffer with initial switch time of 1.5 s and a final switch time of 3.5 s for 12 h at 6 V/cm. The gel was then stained with […] Ethidium Bromide (EtBr) and visualized on UV light. Noncleaved genomic DNA was quantified as percentage (%) of the total genomic DNA that included both noncleaved genomic DNA and cleaved genomic DNA in each individual group.
Cell culture, transfection, primary neuronal culture and treatment. SH-SY5Y cells (ATCC) were cultured in DMEM containing 10% fetal bovine serum and penicillin/streptomycin at 37° C. under 5% C02. The cells were transfected using PolyFect reagent (Qiagen). Parthanatos was induced by the treatment of 50 μM MNNG for 15 min in SH-SY5Y cells. ABT-888 or PAAN/MIF inhibitors were pretreated with indicated concentration 1 h before MNNG treatment and cell death were assessed after 24 h. […]

Sequence of EcoRI (P00642 whole entry): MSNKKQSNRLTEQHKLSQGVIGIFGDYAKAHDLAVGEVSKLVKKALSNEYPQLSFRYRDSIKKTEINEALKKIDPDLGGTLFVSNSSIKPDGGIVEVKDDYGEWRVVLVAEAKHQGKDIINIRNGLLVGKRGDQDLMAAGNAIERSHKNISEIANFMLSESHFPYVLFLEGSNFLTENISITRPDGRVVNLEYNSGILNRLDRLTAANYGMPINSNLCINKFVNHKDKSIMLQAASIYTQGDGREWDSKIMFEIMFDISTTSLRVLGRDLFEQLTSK

Row | Compound | staurosporine (STS)-induced apoptotic cell death (SH-SY5Y cells) | nuclease activity of EcoRI (EcoRI) | genomic DNA cleavage in mouse cortical neurons treated with α-syn PFF (mouse cortical neurons)
1 | COc1ccc(CC[C@H]2OC(=O)[C@@H]3CCCCN3C(=O)C(=O)C(C)(C)COC(=O)C=CCCN(C)C(=O)CNC(=O)[C@H](C(C)C)N(C)C(=O)[C@@H](Cc3ccccc3)NC(=O)[C@H](CC(C)C)N(C)C(=O)CCC(=O)Nc3cccc2c3)cc1OC [compound 76] | do not inhibit | do not inhibit | –
2 | COc1ccc(CC[C@H]2OC(=O)[C@@H]3CCCCN3C(=O)C(=O)C(C)(C)COC(=O)C=CCCN(C)C(=O)[C@@H]3CCCN3C(=O)[C@H](COC(C)(C)C)N(C)C(=O)C(c3ccccc3)NC(=O)[C@H](C)N(C)C(=O)COc3cccc2c3)cc1OC (some centres unmarked) [compound 56] | do not inhibit; also recorded: failed to inhibit | do not inhibit | protected against genomic DNA cleavage
3 | COc1ccc(CC[C@H]2OC(=O)[C@@H]3CCCCN3C(=O)C(=O)C(C)(C)COC(=O)C=CCCN(C)C(=O)[C@@H]3CCCN3C(=O)[C@H](COC(C)(C)C)N(C)C(=O)C(c3ccccc3)NC(=O)CN(C)C(=O)COc3cccc2c3)cc1OC (some centres unmarked) [compound 41] | do not inhibit | do not inhibit | –
4 | COc1ccc(CC[C@H]2OC(=O)[C@@H]3CCCCN3C(=O)C(=O)C(C)(C)COC(=O)C=CCCN(C)C(=O)[C@@H]3CCCN3C(=O)[C@H](COC(C)(C)C)N(C)C(=O)C(c3ccccc3)NC(=O)[C@H](C)N(C)C(=O)COc3cc(F)cc2c3)cc1OC (mixture of isomers) [compound 121] | failed to inhibit | – | protected against genomic DNA cleavage
5 | COc1ccc(CC[C@H]2OC(=O)[C@@H]3CCCCN3C(=O)C(=O)C(C)(C)COC(=O)C=CCCN(C)C(=O)[C@H](C)NC(=O)[C@H](C(C)C)N(C)C(=O)[C@@H](Cc3ccccc3)NC(=O)[C@H](CC(C)C)N(C)C(=O)CCC(=O)Nc3cccc2c3)cc1OC [compound 77] | do not inhibit | do not inhibit | –
